Reference: ChEMBL document CHEMBL1201862, “PubChem BioAssay data set” (2004)
Calls of active or inactive are those of the source.

Legend:
A-375 [1] = experiment: A375 melanoma cell viability reduction, dose response, counter-screen for MITF modulator project, cherry-pick samples, set 2 (AID 540335); assay type: functional, cell-based; conditions: Homo sapiens
A-375 [2] = experiment: MITF: Counter assay: A375 proliferation Measured in Cell-Based System Using Plate Reader - 2084-03_Inhibitor_Dose_DryPowder_Activity. [Related pubchem assays (depositor defined):AID488944]; assay type: functional; conditions: Homo sapiens
[3] = target: T1, Alkaline phosphatase, tissue-nonspecific isozyme (Homo sapiens, UniProt P05186); experiment: TNAP enzyme inhibition by screening hits, dose response, selectivity assay for mouse IAP inhibitor project, biochemical, human TNAP, uHTS hits (AID 488906); assay type: functional
T1 sequence (P05186 whole entry): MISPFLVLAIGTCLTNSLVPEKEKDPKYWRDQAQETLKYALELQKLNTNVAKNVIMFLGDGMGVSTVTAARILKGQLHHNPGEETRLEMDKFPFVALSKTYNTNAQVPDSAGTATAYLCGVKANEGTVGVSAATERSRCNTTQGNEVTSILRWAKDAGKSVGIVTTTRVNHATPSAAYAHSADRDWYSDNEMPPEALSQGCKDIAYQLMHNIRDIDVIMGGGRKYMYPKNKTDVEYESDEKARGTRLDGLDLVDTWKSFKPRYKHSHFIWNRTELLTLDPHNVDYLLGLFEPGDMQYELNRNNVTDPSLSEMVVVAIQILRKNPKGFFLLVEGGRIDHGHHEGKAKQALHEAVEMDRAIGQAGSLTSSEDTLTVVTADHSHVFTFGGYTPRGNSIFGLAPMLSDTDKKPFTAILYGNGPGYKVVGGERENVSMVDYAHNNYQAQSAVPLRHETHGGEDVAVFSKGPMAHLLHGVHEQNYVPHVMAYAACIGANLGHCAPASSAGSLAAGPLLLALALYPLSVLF

[4] = target: Intestinal-type alkaline phosphatase (Mus musculus, UniProt P24822); experiment: PubChem AID 488785; assay type: functional
Sequence of Intestinal-type alkaline phosphatase (Mus musculus, UniProt P24822) (P24822 whole entry): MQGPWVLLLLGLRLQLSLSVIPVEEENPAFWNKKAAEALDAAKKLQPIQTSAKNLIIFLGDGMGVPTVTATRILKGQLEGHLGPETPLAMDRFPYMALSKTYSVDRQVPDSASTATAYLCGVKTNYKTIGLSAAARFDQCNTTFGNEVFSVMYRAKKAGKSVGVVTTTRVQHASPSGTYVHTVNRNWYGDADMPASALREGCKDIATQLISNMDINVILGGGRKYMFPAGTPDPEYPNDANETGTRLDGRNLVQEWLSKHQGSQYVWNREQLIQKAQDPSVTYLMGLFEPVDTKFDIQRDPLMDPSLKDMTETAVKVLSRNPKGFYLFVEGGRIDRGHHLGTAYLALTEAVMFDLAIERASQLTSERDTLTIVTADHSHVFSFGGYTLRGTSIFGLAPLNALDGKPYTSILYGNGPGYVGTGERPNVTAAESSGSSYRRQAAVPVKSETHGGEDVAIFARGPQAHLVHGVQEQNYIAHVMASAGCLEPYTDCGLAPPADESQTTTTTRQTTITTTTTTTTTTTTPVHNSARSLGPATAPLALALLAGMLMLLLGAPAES

[5] = target: Induced myeloid leukemia cell differentiation protein Mcl-1 (Homo sapiens, UniProt Q07820); assay type: functional
Sequence of Induced myeloid leukemia cell differentiation protein Mcl-1 (Q07820 whole entry): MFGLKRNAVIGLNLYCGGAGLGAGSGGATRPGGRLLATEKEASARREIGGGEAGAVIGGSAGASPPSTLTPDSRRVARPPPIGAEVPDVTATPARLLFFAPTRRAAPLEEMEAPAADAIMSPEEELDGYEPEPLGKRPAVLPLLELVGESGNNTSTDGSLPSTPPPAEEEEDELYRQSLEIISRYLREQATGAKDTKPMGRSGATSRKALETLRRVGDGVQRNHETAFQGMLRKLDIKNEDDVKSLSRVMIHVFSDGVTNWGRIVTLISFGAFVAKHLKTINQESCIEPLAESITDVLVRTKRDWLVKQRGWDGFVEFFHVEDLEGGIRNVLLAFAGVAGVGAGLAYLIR

Large T antigen = Large T antigen (Simian virus 40, UniProt P03070); assay type: functional, Betapolyomavirus macacae;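 note: Confirmatory-stage PubChem screen for compounds that inhibit SV40 T antigen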
Sequence of Large T antigen (P03070 whole entry): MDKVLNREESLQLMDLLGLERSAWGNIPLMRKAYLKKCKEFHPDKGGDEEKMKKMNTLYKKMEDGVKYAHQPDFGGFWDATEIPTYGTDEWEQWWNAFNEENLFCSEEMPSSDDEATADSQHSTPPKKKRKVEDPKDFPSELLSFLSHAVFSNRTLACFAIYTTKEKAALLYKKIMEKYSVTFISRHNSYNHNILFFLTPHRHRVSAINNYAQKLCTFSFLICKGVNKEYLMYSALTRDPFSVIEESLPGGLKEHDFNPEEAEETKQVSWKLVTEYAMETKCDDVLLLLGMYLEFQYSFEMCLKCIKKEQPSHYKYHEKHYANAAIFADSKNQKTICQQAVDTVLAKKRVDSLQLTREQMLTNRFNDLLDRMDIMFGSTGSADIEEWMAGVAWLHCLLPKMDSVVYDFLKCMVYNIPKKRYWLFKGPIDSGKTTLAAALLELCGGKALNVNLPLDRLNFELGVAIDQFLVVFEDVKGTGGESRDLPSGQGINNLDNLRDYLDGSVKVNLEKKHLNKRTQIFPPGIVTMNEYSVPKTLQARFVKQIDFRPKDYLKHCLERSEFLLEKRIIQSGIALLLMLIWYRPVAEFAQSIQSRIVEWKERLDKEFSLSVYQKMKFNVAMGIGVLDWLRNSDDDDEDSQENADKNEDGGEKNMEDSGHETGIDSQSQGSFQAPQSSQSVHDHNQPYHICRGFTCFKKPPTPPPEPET

[6] = target: Intestinal-type alkaline phosphatase (Homo sapiens, UniProt P09923); experiment: inhibition of human intestinal alkaline phosphatase – biochemical, dose response (AID 488876); assay type: functional
Sequence of Intestinal-type alkaline phosphatase (Homo sapiens, UniProt P09923) (P09923 whole entry): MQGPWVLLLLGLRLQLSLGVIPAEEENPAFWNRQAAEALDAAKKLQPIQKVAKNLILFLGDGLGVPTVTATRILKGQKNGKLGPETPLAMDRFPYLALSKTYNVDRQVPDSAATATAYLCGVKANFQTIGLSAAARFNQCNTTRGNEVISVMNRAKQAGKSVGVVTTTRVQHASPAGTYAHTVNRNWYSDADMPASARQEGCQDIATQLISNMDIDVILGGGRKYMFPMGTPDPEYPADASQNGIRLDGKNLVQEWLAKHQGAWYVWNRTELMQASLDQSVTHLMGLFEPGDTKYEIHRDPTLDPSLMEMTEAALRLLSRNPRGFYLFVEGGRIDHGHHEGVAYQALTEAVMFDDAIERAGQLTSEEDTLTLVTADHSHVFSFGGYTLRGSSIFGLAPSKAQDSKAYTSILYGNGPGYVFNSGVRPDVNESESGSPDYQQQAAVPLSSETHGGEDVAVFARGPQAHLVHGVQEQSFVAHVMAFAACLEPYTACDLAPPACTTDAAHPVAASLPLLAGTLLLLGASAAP

[7] = target: Glucose-6-phosphate 1-dehydrogenase (Homo sapiens, UniProt P11413); experiment: human G6PD enzyme inhibitors, dose response, selectivity assay for P. falciparum G6PD inhibitor project, biochemical, fluorescence (AID 504792); assay type: functional
Sequence of Glucose-6-phosphate 1-dehydrogenase (P11413 whole entry): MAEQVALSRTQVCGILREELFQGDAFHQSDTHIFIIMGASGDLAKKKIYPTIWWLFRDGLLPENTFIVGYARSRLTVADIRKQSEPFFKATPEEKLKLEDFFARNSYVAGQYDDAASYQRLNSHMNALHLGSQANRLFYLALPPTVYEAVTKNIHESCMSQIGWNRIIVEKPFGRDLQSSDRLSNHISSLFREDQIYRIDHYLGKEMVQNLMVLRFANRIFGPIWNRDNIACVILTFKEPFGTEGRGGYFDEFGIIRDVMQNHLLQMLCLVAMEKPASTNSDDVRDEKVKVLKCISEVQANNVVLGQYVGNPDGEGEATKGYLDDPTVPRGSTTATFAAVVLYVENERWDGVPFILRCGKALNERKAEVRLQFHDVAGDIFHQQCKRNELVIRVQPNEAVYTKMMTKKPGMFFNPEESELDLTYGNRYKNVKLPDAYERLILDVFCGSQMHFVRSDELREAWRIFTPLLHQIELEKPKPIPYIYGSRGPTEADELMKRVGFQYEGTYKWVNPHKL

[8] = target: 5-hydroxytryptamine receptor 5A (Homo sapiens, UniProt P47898); experiment: Counterscreen for agonists of OPRM1-OPRD1 heterodimerization: luminescence-based cell-based high throughput dose response assay to identify agonists of 5-hydroxytryptamine (serotonin) 5A receptor (HTR5A). [Related pubchem assays (depositor defined):AID504326, AID504355, AID504692, AID504904, AID504905]; assay type: functional
Sequence of 5-hydroxytryptamine receptor 5A (P47898 whole entry): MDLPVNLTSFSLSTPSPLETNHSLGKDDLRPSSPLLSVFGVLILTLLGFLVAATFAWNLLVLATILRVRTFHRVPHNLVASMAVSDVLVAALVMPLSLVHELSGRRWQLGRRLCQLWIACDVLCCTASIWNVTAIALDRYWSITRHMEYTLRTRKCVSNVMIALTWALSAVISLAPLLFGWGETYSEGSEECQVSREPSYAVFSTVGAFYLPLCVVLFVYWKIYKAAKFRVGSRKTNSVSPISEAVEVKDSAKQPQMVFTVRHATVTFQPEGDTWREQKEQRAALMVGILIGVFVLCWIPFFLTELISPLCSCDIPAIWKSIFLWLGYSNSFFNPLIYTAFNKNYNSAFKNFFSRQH

Mu-type opioid receptor = Mu-type opioid receptor (Homo sapiens, UniProt P35372); experiment: (§1) Counterscreen for agonists of heterodimerization of the mu 1 (OPRM1) and delta 1 (OPRD1) opioid receptors: Luminescence-based cell-based high throughput dose response assay to identify agonists of OPRM1 homodimerization.; assay type: functional
Sequence of Mu-type opioid receptor (P35372 whole entry): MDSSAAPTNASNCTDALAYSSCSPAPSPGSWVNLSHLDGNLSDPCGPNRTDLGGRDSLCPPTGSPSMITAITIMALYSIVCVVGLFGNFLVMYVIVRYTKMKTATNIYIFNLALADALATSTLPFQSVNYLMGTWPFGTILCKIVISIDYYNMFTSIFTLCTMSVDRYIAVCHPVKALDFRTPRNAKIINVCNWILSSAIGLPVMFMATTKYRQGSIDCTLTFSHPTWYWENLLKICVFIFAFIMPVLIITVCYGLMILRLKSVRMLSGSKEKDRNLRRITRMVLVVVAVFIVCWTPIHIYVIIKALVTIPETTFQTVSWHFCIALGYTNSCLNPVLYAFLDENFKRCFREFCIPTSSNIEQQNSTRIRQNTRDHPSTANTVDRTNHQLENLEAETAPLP

[9] = target: T2, Short transient receptor potential channel 4 (Mus musculus, UniProt Q9QUQ5); experiment: mouse TRPC4 channel activators, dose response, cell-based, HEK293 TRPC4/mu-opioid, Fluo-4 calcium (AID 434937); assay type: functional
T2 sequence (Q9QUQ5 whole entry): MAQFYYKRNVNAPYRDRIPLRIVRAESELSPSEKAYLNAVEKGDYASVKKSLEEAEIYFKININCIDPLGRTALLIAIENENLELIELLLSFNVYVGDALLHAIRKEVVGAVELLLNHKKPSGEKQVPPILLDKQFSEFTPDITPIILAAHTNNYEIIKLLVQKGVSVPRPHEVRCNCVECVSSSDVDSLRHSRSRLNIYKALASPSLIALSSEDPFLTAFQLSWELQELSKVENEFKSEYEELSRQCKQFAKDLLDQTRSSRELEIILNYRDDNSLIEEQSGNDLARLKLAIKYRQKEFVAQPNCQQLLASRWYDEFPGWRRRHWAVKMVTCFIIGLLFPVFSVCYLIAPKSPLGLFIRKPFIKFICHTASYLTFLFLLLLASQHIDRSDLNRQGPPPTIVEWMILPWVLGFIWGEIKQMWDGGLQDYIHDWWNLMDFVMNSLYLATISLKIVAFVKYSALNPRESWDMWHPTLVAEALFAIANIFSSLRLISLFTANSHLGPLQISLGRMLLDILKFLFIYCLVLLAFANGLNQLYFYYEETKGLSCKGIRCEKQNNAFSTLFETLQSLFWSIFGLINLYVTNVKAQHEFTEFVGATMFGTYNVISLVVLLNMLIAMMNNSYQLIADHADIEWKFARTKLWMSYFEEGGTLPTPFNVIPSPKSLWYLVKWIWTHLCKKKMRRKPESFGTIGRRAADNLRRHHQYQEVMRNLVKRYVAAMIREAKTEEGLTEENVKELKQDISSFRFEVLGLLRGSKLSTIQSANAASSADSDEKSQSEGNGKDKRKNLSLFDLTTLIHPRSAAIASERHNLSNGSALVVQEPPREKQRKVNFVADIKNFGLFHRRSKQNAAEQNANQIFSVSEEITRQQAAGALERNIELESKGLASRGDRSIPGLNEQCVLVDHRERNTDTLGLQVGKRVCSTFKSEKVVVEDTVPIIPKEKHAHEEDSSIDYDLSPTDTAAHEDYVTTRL

[10] = target: Delta-type opioid receptor (Homo sapiens, UniProt P41143); experiment: as §1, with “of OPRD1” for “of OPRM1”, “homodimerization. [Related pubchem assays (depositor defined):AID504326, AID504355, AID504692, AID504904, AID504905]” for “homodimerization.”; assay type: functional
Sequence of Delta-type opioid receptor (P41143 whole entry): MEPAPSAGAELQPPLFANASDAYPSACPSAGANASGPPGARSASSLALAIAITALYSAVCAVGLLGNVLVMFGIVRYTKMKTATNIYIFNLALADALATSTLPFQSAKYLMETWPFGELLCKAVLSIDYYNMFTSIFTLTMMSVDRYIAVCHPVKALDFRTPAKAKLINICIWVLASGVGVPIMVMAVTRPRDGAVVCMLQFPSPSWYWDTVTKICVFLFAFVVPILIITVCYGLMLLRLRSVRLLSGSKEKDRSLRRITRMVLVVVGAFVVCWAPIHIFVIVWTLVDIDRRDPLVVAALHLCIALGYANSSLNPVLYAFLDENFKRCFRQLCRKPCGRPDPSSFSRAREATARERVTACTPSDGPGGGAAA

Cc1cccc(OCC(=O)Nc2cccc(O)c2)c1
AC50 (A-375 [1]): > 35 µM (active)
AC50 (A-375 [2]): > 35 µM (active)

O=C1CC(c2ccc(O)c(O)c2)Oc2c1ccc(O)c2O (stereo not given)
IC50 [3]: > 100 µM (inactive)
IC50 [4]: 14.8 µM (active)
IC50 [5]: 2.99 µM (active)
IC50 (Large T antigen): 1.91 µM (active)
IC50 [6]: 24.8 µM (active)

O=C(Nc1ccc(N2CCOCC2)c(Cl)c1)c1ccc(Cl)cc1
IC50 [7]: > 80 µM (inactive)

CN(C)C(CN=C(S)Nc1ccccc1Cl)c1cccnc1 (stereo not given)
EC50 [8]: > 92.5 µM (inactive)
EC50 (Mu-type opioid receptor): 3.64 µM (active)
EC50 [9]: 0.0333 µM (active)
EC50 [10]: 26.9 µM (inactive)

CC(/C=C/C1(O)C(C)CC(=O)CC1(C)C)OC1OC(CO)C(O)C(O)C1O (stereo not given)
IC50 [3]: > 100 µM (inactive)
IC50 [4]: 9.13 µM (active)
IC50 [6]: > 100 µM (inactive)
